Test [1] deals with human H1R (Homo sapiens, UniProt P35367). Kind of test: Human H1R radioligand displacement assay. The note with it: for inhibition at 10 µM: read-out: hH1R Inhibition at 10 µM [%] ±SD (n); for inhibition at 1 µM: read-out: hH1R Inhibition at 1 µM [%] (n). Type of test: binding. (Displacement assays read how much labelled ligand stays bound in the presence of the test substance.)

Test [2] has as its target human AChE (Homo sapiens, UniProt P22303). Kind of test: Inhibition of AChE. Type of test: biochemical. The note with it: for inhibition at 10 µM: read-out: AChE Inhibition at 10 µM [%].
Test [3] has as its target human H4R (Homo sapiens, UniProt Q9H3N8). Nature of the test: Human H4R radioligand displacement assay. Particulars: read-out: hH4R Inhibition at 10 µM [%] (n).
Test [4] has as its target human H3R (Homo sapiens, UniProt Q9Y5N1). Nature of the test: Human H3R radioligand displacement assay. Particulars: for inhibition at 1 µM: read-out: hH3R Inhibition at 1 µM [%] ±SD (n).

human H3R, sequence (Q9Y5N1 whole entry): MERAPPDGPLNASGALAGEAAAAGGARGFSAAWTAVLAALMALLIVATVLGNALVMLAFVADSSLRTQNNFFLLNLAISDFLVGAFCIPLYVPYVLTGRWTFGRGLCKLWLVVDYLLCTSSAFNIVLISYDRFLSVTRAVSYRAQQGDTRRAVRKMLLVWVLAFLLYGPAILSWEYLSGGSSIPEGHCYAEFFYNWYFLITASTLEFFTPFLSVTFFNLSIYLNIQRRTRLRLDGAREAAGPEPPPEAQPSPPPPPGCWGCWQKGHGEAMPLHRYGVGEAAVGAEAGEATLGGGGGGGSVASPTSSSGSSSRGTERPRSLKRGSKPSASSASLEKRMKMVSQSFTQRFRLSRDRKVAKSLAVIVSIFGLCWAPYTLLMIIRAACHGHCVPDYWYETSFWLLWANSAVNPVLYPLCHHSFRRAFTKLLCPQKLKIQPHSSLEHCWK
human H4R, sequence (Q9H3N8 whole entry): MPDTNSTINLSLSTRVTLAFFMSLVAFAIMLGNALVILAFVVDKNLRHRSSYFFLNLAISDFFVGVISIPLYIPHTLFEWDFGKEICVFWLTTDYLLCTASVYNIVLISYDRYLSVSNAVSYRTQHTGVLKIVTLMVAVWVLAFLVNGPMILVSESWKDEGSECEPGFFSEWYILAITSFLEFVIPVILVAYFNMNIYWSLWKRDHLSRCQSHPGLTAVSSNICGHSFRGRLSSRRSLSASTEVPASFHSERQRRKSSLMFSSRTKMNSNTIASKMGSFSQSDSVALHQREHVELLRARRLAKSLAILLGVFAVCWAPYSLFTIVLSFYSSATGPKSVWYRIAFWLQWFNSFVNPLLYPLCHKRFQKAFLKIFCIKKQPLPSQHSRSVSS
human AChE, sequence (P22303 32-614): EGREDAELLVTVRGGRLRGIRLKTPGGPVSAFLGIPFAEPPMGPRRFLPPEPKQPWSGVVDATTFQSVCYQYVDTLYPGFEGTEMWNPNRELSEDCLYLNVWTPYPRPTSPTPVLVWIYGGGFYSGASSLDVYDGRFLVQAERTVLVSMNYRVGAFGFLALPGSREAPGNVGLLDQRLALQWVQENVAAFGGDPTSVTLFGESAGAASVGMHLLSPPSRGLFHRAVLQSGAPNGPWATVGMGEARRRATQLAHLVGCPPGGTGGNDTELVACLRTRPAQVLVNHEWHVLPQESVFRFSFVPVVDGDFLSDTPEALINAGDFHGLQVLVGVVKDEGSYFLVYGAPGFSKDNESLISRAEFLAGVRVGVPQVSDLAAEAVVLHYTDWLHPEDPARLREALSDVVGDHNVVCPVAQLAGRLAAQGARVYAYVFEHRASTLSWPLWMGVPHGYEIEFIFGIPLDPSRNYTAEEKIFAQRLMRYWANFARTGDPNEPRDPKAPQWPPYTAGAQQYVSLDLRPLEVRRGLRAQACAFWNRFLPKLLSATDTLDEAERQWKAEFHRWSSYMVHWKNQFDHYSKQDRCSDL
human H1R, sequence (P35367 whole entry): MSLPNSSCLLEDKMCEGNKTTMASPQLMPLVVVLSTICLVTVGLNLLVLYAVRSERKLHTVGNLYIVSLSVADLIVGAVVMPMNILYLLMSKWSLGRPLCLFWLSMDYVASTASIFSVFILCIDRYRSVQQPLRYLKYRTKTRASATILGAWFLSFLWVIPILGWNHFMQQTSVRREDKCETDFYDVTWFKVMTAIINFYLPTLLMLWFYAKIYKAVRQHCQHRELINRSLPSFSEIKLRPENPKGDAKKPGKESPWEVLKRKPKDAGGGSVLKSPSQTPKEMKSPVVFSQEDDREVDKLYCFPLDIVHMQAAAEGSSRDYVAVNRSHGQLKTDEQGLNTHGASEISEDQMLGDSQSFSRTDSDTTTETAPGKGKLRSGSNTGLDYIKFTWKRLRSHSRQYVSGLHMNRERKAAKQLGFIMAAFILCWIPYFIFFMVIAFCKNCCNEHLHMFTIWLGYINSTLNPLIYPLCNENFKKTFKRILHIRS

For `CCOC(=O)c1nc2ccc(OCCN3CCOCC3)cc2s1` [Compound 1a, Ethyl 6-(2-morpholinoethoxy)benzo[d]thiazole-2-carboxylate], the results for the inhibition at 10 µM in test [1], in test [2] and in test [3] were below 0%, 7.64 ± 7.33% and 39.2 ± 34.7%, respectively. This compound also yielded an IC50 in test [2] above 10 µM. Also, the inhibition at 1 µM in test [4] is 63.3 ± 4.2%.

For the compound `CCOC(=O)c1nc2ccc(OCCN3CCCCC3)cc2s1` [Compound 1b, Ethyl 6-(2-(piperidin-1-yl)ethoxy)benzo[d]thiazole-2-carboxylate], the inhibition at 10 µM in test [1] is below 0%; in test [2] it was 9.25 ± 7.88%; in test [3] it was 61.7 ± 35.4%. Also, the IC50 in test [2] is above 10 µM. Besides, in test [4], the inhibition at 1 µM is 35.2 ± 14.4%.

Take `CCOC(=O)c1nc2ccc(OCCN3CCCC3)cc2s1` [Compound 1c, Ethyl 6-(2-(pyrrolidin-1-yl)ethoxy)benzo[d]thiazole-2-carboxylate]: the results for the inhibition at 10 µM in test [1], in test [2] and in test [3] were 1 ± 9.7%, 57.2 ± 5.41% and 54 ± 12.1%, respectively. This compound also showed an IC50 in test [2] of 7.63 ± 1.6 µM. In test [4], the inhibition at 1 µM worked out at 50.2 ± 10.9%.

Take `COC(=O)c1nc2ccc(OCCN3CCOCC3)cc2s1` [Compound 1d, Methyl 6-(2-morpholinoethoxy)benzo[d]thiazole-2-carboxylate]: the inhibition at 10 µM in test [1] is 11.2 ± 10.5%; in test [2], 5.52 ± 6.39%; in test [3], 51.3 ± 18.2%. Also, in test [2], the IC50 was above 10 µM. Further, the inhibition at 1 µM in test [4] amounted to 25.3 ± 5.4%.

On to `COC(=O)c1nc2ccc(OCCN3CCCCC3)cc2s1` [Compound 1e, Methyl 6-(2-(piperidin-1-yl)ethoxy)benzo[d]thiazole-2-carboxylate], for which the inhibition at 10 µM was determined as 16.3 ± 41.7% in test [1] and 84 ± 4.25% in test [2]. The same compound returned an IC50 in test [2] of 2.92 ± 0.37 µM. Moreover, the inhibition at 1 µM in test [4] was 54.2 ± 28.4%.

As for `COC(=O)c1nc2ccc(OCCCN[C@@H](Cc3ccc(O)cc3)C(=O)OC)cc2s1` [Compound 2a, Methyl (S)-6-(3-((3-(4-hydroxyphenyl)-1-methoxy-1-oxopropan-2-yl)amino)propoxy)benzo[d]thiazole-2-carboxylate], the inhibition at 10 µM was below 0% in test [1], below 0% in test [2] and 35.5 ± 32.1% in test [3]. Moreover, the IC50 in test [2] was above 10 µM. For the same compound, the inhibition at 1 µM in test [4] is 54.8 ± 21.2%.

As for `O=C(c1nc2ccc(OCCN3CCCCC3)cc2s1)N1CCCCC1` [Compound 3a, Piperidin-1-yl-(6-(2-(piperidin-1-yl)ethoxy)benzo[d]thiazol-2-yl)methanone], the inhibition at 10 µM in test [1] is below 0%. For the same compound, in test [2], the IC50 was above 10 µM and the inhibition at 10 µM is 35.5 ± 13.4%. Also, the inhibition at 10 µM in test [3] came to 30.3 ± 24.9%. In addition, in test [4], the Ki is above 1 µM and the inhibition at 1 µM turned out to be 68 ± 9.1%.

In the case of `O=C(NCC1CCCCC1)c1nc2ccc(OCCNCC3CCCCC3)cc2s1` [Compound 3c, N-(Cyclohexylmethyl)-6-(2-((cyclohexylmethyl)amino)ethoxy)benzo[d]thiazole-2-carboxamide], the inhibition at 10 µM in test [1] is 5.3 ± 14.2%; in test [2] it was below 0%; in test [3] it was 52.8 ± 11.8%. In test [2], this compound showed an IC50 above 10 µM. Moreover, the inhibition at 1 µM in test [4] was found to be 31.5 ± 11.4%.

`O=C(NC1CCCCCC1)c1nc2ccc(OCCCNC3CCCCCC3)cc2s1` [Compound 3e, N-Cycloheptyl-6-(3-(cycloheptylamino)propoxy)benzo[d]thiazole-2-carboxamide]: the inhibition at 10 µM stood at 12.1 ± 18.3% in test [1], 7.3 ± 2.31% in test [2] and 53.5 ± 15.2% in test [3]. Also, the IC50 in test [2] was above 10 µM. Also, the inhibition at 1 µM in test [4] was 35.7 ± 11.5%.

In the case of `O=C(NCC1CCCCC1)c1nc2ccc(OCCCNCC3CCCCC3)cc2s1` [Compound 3f, N-(Cyclohexylmethyl)-6-(3-((cyclohexylmethyl)amino)propoxy)benzo[d]thiazole-2-carboxamide], the inhibition at 10 µM was found to be 47.6 ± 12.9% in test [1], 3.2 ± 3.69% in test [2] and 60.8 ± 30.4% in test [3]. This compound also gave an IC50 in test [2] above 10 µM. For the same compound, the inhibition at 1 µM in test [4] is 46.3 ± 14.7%.

With `O=C(NC1CC1)c1nc2ccc(OCCCNC3CC3)cc2s1` [Compound 3g, N-Cyclopropyl-6-(3-(cyclopropylamino)propoxy)benzo[d]thiazole-2-carboxamide], the inhibition at 10 µM came out at 13.6 ± 10.7% in test [1], 15.4 ± 11.2% in test [2] and 30.2 ± 14.3% in test [3]. For the same compound, in test [2], the IC50 is above 10 µM. Moreover, the inhibition at 1 µM in test [4] is 27.7 ± 12.8%.

For `O=C(NC1CCCC1)c1nc2ccc(OCCCNC3CCCC3)cc2s1` [Compound 3i, N-Cyclopentyl-6-(3-(cyclopentylamino)propoxy)benzo[d]thiazole-2-carboxamide], the inhibition at 10 µM was found to be 35.5 ± 9.8% in test [1], 59 ± 6.16% in test [2] and 50.5 ± 13% in test [3]. The IC50 in test [2] worked out at 7.31 ± 1.59 µM. The inhibition at 1 µM in test [4] stood at 51.2 ± 8.7%.

On to `O=C(NC1CCCCCC1)c1nc2ccc(OCCCCNC3CCCCCC3)cc2s1` [Compound 3k, N-Cycloheptyl-6-(4-(cycloheptylamino)butoxy)benzo[d]thiazole-2-carboxamide], for which the inhibition at 10 µM stood at 14.2 ± 11.7% in test [1], 9.7 ± 4.91% in test [2] and 61.5 ± 8.9% in test [3]. Further, the IC50 in test [2] is above 10 µM. For the same compound, in test [4], the inhibition at 1 µM came out at 39 ± 8.9%.

As to `O=C(NCC1CCCCC1)c1nc2ccc(OCCCCNCC3CCCCC3)cc2s1` [Compound 3l, N-(Cyclohexylmethyl)-6-(4-((cyclohexylmethyl)amino)butoxy)benzo[d]thiazole-2-carboxamide], the inhibition at 10 µM in test [1] was 14.7 ± 8.5%; in test [2] it was 16.7 ± 7.79%; in test [3], 49.7 ± 41%. This compound displayed an IC50 in test [2] above 10 µM. For the same compound, the inhibition at 1 µM in test [4] was 57.3 ± 12.7%.

As for `CC1CC(C)CN(CCCOc2ccc3nc(C(=O)N4CC(C)CC(C)C4)sc3c2)C1` (centres unmarked) [Compound 4c, (3,5-Dimethylpiperidin-1-yl)(6-(3-(3,5-dimethylpiperidin-1-yl)propoxy)benzo[d]thiazol-2-yl)methanone], the inhibition at 1 µM in test [1] came out at 26.8 ± 31%. For the same compound, in test [2], the IC50 is above 10 µM and the inhibition at 10 µM came to 6.9 ± 1.67%. The compound further registered a Ki in test [4] of 0.34 µM.

On to `O=C(NCCc1ccccc1)c1nc2ccc(OCCCNCCc3ccccc3)cc2s1` [Compound 4d, N-Phenethyl-6-(3-(phenethylamino)propoxy)benzo[d]thiazole-2-carboxamide], for which, in test [1], the inhibition at 1 µM amounted to 10.9 ± 37.1%. Besides, in test [2], the IC50 is above 10 µM and the inhibition at 10 µM is 5.2 ± 2.36%. The compound further registered a Ki in test [4] above 1 µM.

`O=C(c1nc2ccc(OCCCN3CCc4ccccc4C3)cc2s1)N1CCc2ccccc2C1` [Compound 4e, (3,4-Dihydroisoquinolin-2(1H)-yl)(6-(3-(3,4-dihydroisoquinolin-2(1H)-yl)propoxy)benzo[d]thiazol-2-yl)methanone]: in test [1], the inhibition at 1 µM was 9.7 ± 23%. In addition, in test [2], the IC50 is above 10 µM and the inhibition at 10 µM was 6.2 ± 3.15%. This compound had a Ki in test [4] of 0.34 µM.

For `CCN1CCN(CCCOc2ccc3nc(C(=O)N4CCN(CC)CC4)sc3c2)CC1` [Compound 4f, (4-Ethylpiperazin-1-yl)(6-(3-(4-ethylpiperazin-1-yl)propoxy)benzo[d]thiazol-2-yl)methanone], the inhibition at 1 µM in test [1] is 3 ± 36%. In test [2], the IC50 was above 10 µM and the inhibition at 10 µM was 8.2 ± 1.64%. In test [4], affinity was put at a Ki of 0.43 µM.

Turning to `CN1CCN(CCCOc2ccc3nc(C(=O)N4CCN(C)CC4)sc3c2)CC1` [Compound 4g, (4-Methylpiperazin-1-yl)(6-(3-(4-methylpiperazin-1-yl)propoxy)benzo[d]thiazol-2-yl)methanone], in test [1], the inhibition at 1 µM amounted to 4.8 ± 37.7%. Moreover, in test [2], the IC50 was above 10 µM and the inhibition at 10 µM was determined as 7.7 ± 1.87%. For the same compound, the Ki in test [4] is above 1 µM.

With `CC1CN(CCCOc2ccc3nc(C(=O)N4CCNC(C)C4)sc3c2)CCN1` (centres unmarked) [Compound 4h, (3-Methylpiperazin-1-yl)(6-(3-(3-methylpiperazin-1-yl)propoxy)benzo[d]thiazol-2-yl)methanone], the inhibition at 1 µM in test [1] came to 18.4 ± 27%. For the same compound, in test [2], the half-inhibitory concentration (IC50) is above 10 µM and the inhibition at 10 µM came to 8.3 ± 1.02%. This compound gave a Ki in test [4] of 0.47 µM.

`O=C(c1nc2ccc(OCCCN3CCN(CCO)CC3)cc2s1)N1CCN(CCO)CC1` [Compound 4i, (4-(2-Hydroxyethyl)piperazin-1-yl)(6-(3-(4-(2-hydroxyethyl)piperazin-1-yl)propoxy)benzo[d]thiazol-2-yl)methanone]: in test [1], the inhibition at 1 µM is 22.5 ± 27.4%. Moreover, in test [2], the IC50 is above 10 µM and the inhibition at 10 µM was 7.3 ± 2.77%. This compound returned a Ki in test [4] of 0.12 µM.

Consider `O=C(NCc1ccccc1)c1nc2ccc(OCCCNCc3ccccc3)cc2s1` [Compound 4j, N-Benzyl-6-(3-(benzylamino)propoxy)benzo[d]thiazole-2-carboxamide], for which the inhibition at 1 µM in test [1] stood at 27 ± 39.4%. In test [2], the IC50 is above 10 µM and the inhibition at 10 µM worked out at 20.3 ± 3.55%. This compound also came in with a Ki in test [4] of 0.64 µM.

On to `CC1CCN(CCCOc2ccc3nc(C(=O)N4CCC(C)CC4)sc3c2)CC1` [Compound 4l, (4-Methylpiperidin-1-yl)(6-(3-(4-methylpiperidin-1-yl)propoxy)benzo[d]thiazol-2-yl)methanone], for which the inhibition at 1 µM in test [1] was found to be 26.8 ± 26.3%. In test [2], the IC50 is above 10 µM and the inhibition at 10 µM was 8.4 ± 0.51%. In test [4], this compound showed a Ki of 0.43 µM.

For the compound `CC(=O)N1CCN(CCCOc2ccc3nc(C(=O)N4CCN(C(C)=O)C(C)C4)sc3c2)CC1C` (centres unmarked) [Compound 4m, 1-(4-(6-(3-(4-Acetyl-3-methylpiperazin-1-yl)propoxy)benzo[d]thiazole-2-carbonyl)-2-methylpiperazin-1-yl)ethan-1-one], the inhibition at 1 µM in test [1] was 27 ± 27.6%. For the same compound, in test [2], the IC50 was above 10 µM and the inhibition at 10 µM came to 2.4 ± 2.06%. Moreover, the Ki in test [4] was found to be 0.4 µM.

One may read the inhibition as the change of the read-out against control, counted positive when it falls. As a reminder, the IC50 is the midpoint of a concentration-inhibition curve. The Ki is a measure of affinity in units of concentration, obtained from inhibition or displacement. A high value points to lower affinity.

These data come from article PMC9937012 (Journal of Enzyme Inhibition and Medicinal Chemistry, 2023).
